Source: patent publication US20240182407A1, “QUINOLINE COMPOUND SALT OR CRYSTAL FORM, PREPARATION METHOD THEREFOR, AND APPLICATION THEREOF” (Nanjing Zenshine Pharmaceuticals Co., Ltd., priority 2021, published 2024)
In brackets after ≈: the same amount, converted by molar mass.

Experiments:
PI3Kα = target: T1, PI3Kα (Mus musculus, UniProt P42337); assay: Akt phosphorylation in C2Cl2 cells stimulated by IGF-1 (AlphaLISA); conditions: phosphorylation of Akt, C2C12 cells, read-out: IC50 PI3Kα Cell-based
T1 construct: host or cells: C2C12 cells
Description: In addition, taking Sample 6 as an example, the inhibitory effects thereof on PI3Kα, PI3Kβ, PI3Kγ and PI3Kδ in corresponding cells were determined. The activity of PI3Kα was detected by the phosphorylation level of Akt in C2Cl2 cells stimulated by IGF-1, the activity of PI3Kβ was detected by the phosphorylation level of Akt in PC-3 cells stimulated by LPA, the activity of PI3Kγ was detected by the phosphorylation level of Akt in Raw264.7 cells stimulated by c5α, and the activity of PI3Kδ was detected by the phosphorylation level of Akt in Raji cells stimulated by IgM. The phosphorylation level of Akt in cells was determined by means of AlphaLISA technique from PerkinElemer.
The C2C12 cells, PC-3 cells, Raw264.7 cells and Raji cells were all purchased from ATCC.

[1] = test system: human-derived lymphoma DoHH-2 cell line; assay: Human-derived lymphoma DoHH-2 subcutaneous xenograft in CB17/SCID female immunodeficient mice; format: in vivo, mouse; conditions: Day 24
Description: In Example 8, the anti-tumor effects of p-toluenesulfonate of Compound A at various dosages by intragastric administration on human-derived lymphoma DoHH-2 cell line subcutaneous transplantation CB17/SCID female immunodeficient mouse model were evaluated.
7-9-week-old CB17/SCID female immunodeficient mice were subcutaneously inoculated with […] DoHH-2 cells to establish a subcutaneous human lymphoma xenograft tumor model. When the average tumor volume in the mice reached 68 mm^3, the mice were randomly divided into groups and dosed on the day of grouping. The treatment method for each treatment group and vehicle control group was as follows:
p-toluenesulfonate of Compound A (Sample 6), given 100 mg/kg (p.o. QD) group, once daily, for 25 days (days 0-24);
p-toluenesulfonate of Compound A (Sample 6), given 30 mg/kg (p.o. QD) group, once daily, for 25 days (days 0-24);
positive treatment group (Duvelisib, purchased from Shanghai Lollane biological technology Co., Ltd.), given 50 mg/kg (p.o. BID) twice daily with an interval of 12 h, for 24 days; and
vehicle control group (5% DMSO/40% PEG400/55% water, by volume) (p.o. QD), given once daily, for 25 days (days 0-24).
There were 10 mice in each group, and all the mice were administered starting on the day of grouping (Day 0) and euthanized on Day 24 after grouping (Day 24). The efficacy was evaluated according to the tumor volume at the end point of the experiment.
The abbreviation p.o. stood for oral gavage, QD stood for once daily, and BID stood for twice daily.
The relative tumor inhibition rate (TGI) was calculated by the following formula: […]
T and C were respectively the average tumor volumes in the experimental group and the vehicle control group at a specific time point.

[2] = Crystal form stability under grinding (XRPD); format: physicochemical; conditions: ground in a mortar for 2 min
Description: In addition, the stability of p-toluenesulfonate crystal form I (Sample 8) under grinding and high humidity conditions was investigated.
A certain amount of p-toluenesulfonate crystal form I was ground in a mortar for 2 min and then measured by XRPD.

[3] = Solubility in simulated gastrointestinal fluids (SGF, FeSSIF, FaSSIF) at 37° C.; format: physicochemical; conditions: for Solubility: 37° C.; for Solubility / pH of filtrate: listed as Sample 5; for solubility at 30 min / solubility at 2 h / solubility at 24 h: 37 °C, thermodynamic from solid
Description: The solubilities of Compound A and p-toluenesulfonate (Sample 5, crystal form I) in simulated gastrointestinal fluids (SGF, FeSSIF and FaSSIF) at 37° C. were tested.
About 7.5 mg of Compound A and p-toluenesulfonate were separately added to 1.5 mL of three biological vehicles to prepare suspensions. All the suspensions were placed in a shaker at 37° C. and shaken at 200 rpm for 24 h, and about 0.5 mL was sampled separately at 0.5 h, 2 h and 24 h for filtration. The obtained filtrates were subjected to HPLC analysis and pH measurement, and the filter cakes were respectively measured by XRPD.

[4] = Dynamic water desorption analysis (DVS), hygroscopicity; format: physicochemical
Description: The instrument model used for DVS analysis was IGA Sorp (Hidentity Isochema). The sample was measured in a gradient mode, the humidity range for the test was from 0% to 90%, and the humidity increment of each gradient was 10%. The time to keep at each humidity gradient was from 30 min to 2 h.
It was determined by NMR and TGA that the sample had essentially no weight loss and no solvent residue before decomposition.
Sample 3 was taken as an example for dynamic water desorption analysis (DVS) characterization. The instrument model used for DVS analysis was IGA Sorp (Hidentity Isochema). The sample was measured in a gradient mode, the humidity range for the test was from 0% to 90%, and the humidity increment of each gradient was 10%. The time to keep at each humidity gradient was from 30 min to 2 h.

WSU-DLCL-2 = assay: Proliferation of lymphoma cell line in vitro, WSU-DLCL-2; format: cell-based; conditions: Homo sapiens, WSUDLCL2, read-out: absolute IC50 (AbsIC50), proliferation

T1 sequence (P42337 whole entry): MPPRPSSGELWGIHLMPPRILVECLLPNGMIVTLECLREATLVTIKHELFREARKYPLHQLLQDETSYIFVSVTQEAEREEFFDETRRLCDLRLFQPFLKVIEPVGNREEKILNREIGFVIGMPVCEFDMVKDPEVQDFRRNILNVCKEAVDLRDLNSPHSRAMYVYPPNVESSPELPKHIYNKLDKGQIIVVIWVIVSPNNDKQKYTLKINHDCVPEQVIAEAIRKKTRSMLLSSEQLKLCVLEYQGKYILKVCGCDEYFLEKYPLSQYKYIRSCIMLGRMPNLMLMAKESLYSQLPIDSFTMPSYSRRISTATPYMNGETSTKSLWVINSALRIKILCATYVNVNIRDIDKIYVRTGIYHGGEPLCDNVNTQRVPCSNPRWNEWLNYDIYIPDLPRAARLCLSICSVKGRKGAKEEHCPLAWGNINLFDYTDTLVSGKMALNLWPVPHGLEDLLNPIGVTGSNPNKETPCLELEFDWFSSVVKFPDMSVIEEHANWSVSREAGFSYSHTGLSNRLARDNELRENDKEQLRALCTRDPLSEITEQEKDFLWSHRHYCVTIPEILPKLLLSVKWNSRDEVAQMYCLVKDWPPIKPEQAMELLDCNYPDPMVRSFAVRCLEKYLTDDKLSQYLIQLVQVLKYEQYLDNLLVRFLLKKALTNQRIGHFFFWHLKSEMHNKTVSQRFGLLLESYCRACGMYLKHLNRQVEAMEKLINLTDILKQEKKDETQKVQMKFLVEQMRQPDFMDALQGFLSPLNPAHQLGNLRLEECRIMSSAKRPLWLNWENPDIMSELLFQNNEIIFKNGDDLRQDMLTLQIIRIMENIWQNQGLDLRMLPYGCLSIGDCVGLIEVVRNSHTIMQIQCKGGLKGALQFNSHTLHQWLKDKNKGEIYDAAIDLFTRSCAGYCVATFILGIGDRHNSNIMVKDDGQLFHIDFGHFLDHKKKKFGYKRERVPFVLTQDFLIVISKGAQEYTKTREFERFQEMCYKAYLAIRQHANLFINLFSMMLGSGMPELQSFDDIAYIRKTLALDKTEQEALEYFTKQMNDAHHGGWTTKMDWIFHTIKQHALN
T1 sequence (P26450 whole entry partner): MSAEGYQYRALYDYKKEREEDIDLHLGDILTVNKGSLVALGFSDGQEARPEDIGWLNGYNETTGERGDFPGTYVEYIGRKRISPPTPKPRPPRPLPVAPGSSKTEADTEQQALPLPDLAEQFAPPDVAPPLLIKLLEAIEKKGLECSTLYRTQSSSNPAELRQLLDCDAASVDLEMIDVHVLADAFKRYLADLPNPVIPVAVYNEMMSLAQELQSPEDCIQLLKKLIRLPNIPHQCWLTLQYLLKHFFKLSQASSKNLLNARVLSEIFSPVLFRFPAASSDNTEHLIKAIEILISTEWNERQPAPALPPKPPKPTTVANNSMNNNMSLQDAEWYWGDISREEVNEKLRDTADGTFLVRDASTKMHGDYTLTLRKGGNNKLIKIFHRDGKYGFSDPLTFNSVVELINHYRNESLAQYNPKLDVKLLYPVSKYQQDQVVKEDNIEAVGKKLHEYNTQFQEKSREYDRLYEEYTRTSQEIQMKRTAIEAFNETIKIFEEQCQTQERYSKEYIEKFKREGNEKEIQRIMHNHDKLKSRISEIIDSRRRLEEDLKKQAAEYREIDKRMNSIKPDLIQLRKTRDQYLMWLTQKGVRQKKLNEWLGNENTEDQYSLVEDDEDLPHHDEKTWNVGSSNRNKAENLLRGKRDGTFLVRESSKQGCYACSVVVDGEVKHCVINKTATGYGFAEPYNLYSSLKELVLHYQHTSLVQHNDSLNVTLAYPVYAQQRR

For `C[C@H](Nc1nc(N)nc(N)c1C#N)c1cc2ccc(F)cc2nc1-c1ccccn1` [p-toluenesulfonate of Compound A], the IC50 (PI3Kα) was 3.52 µM, the average tumor volume ([1]; 30 mg/kg p.o. QD) was 984.45 mm^3 and the “relative tumor inhibition rate (TGI)” value ([1]; 30 mg/kg p.o. QD) was 54%. For the same compound, the average tumor volume ([1]; 100 mg/kg p.o. QD) was 549.05 mm^3, the “relative tumor inhibition rate (TGI)” value ([1]; 100 mg/kg p.o. QD) was 75% and the “crystal form after grinding (XRPD)” value [2] was “still p-toluenesulfonate crystal form I”. For the same compound, the Solubility ([3]; FaSSIF (pH 6.52), 30 min) was 570 µg/mL (≈ 1.42 mM), the Solubility ([3]; FaSSIF (pH 6.52), 2 h) was 560 µg/mL (≈ 1.4 mM) and the Solubility ([3]; FaSSIF (pH 6.52), 24 h) was 550 µg/mL (≈ 1.37 mM). The pH of filtrate ([3]; FaSSIF (pH 6.52), 0.5 h) was 6.27, the pH of filtrate ([3]; FaSSIF (pH 6.52), 2 h) was 6.10 and the pH of filtrate ([3]; FaSSIF (pH 6.52), 24 h) was 5.38. The pH of filtrate ([3]; FeSSIF (pH 4.99), 0.5 h) was 4.81, the pH of filtrate ([3]; FeSSIF (pH 4.99), 2 h) was 4.80 and the pH of filtrate ([3]; FeSSIF (pH 4.99), 24 h) was 4.69. It also gave a solubility at 30 min ([3]; FeSSIF, pH 4.99, fessif, FeSSIF (pH 4.99), 30 min) of 1310 µg/mL (≈ 3.27 mM), a solubility at 2 h ([3]; FeSSIF, pH 4.99, fessif, FeSSIF (pH 4.99), 2 h) of 2740 µg/mL (≈ 6.84 mM) and a solubility at 24 h ([3]; FeSSIF, pH 4.99, fessif, FeSSIF (pH 4.99), 24 h) of 3570 µg/mL (≈ 8.92 mM). For the same compound, the pH of filtrate ([3]; SGF (pH 1.21), 0.5 h) was 1.05, the pH of filtrate ([3]; SGF (pH 1.21), 2 h) was 1.10 and the pH of filtrate ([3]; SGF (pH 1.21), 24 h) was 1.11. The solubility at 30 min ([3]; SGF, pH 1.21, simulated gastric fluid, SGF (pH 1.21), 30 min) was greater than 5440 µg/mL, the solubility at 2 h ([3]; SGF, pH 1.21, simulated gastric fluid, SGF (pH 1.21), 2 h) was greater than 5400 µg/mL and the solubility at 24 h ([3]; SGF, pH 1.21, simulated gastric fluid, SGF (pH 1.21), 24 h) was greater than 5350 µg/mL. For the same compound, the “crystal form before and after humidity change (XRPD after DVS)” value ([4]; 0% to 90% RH) was “remained unchanged”, the “moisture absorbed (DVS)” value ([4]; at 90% RH) was 0.92% and the IC50 (WSU-DLCL-2) was less than 0.1 µM.
